# Paper PMC12298391, “Novel Lung Cell-Penetrating Peptide Targets Alveolar Epithelial Type II Cells, Basal Cells, and Ionocytes” (Pharmaceutics, 2025)
# Where a SMILES comes first, the peptide text is derived from it. The star is where a group is joined. X1 = CN1C(=CC=CC=CC2=[N+](CCCCCC(=O)*)c3ccc4ccccc4c3C2(C)C)C(C)(C)c2c1ccc1ccccc21
# How the values were obtained:
# wild-type CD1 mice = details: 15 min, N = 3; for Uptake in the heart: confocal
# Method: (§1) Wild-type, 6-week-old, CD1 (Charles Rivers, Wilmington, MA, USA; Cat #022) mice were weighed and anesthetized with an intraperitoneal injection of a 1:1 cocktail of Ketamine–Xylazine at 1–2 μL/gm body weight, followed by intravenous injection with Cy5.5-labeled peptides that were allowed to circulate for various time points. At the end of the circulation times, the mice were euthanized using inhalational CO2, their chest cavity was opened, their right atrium nicked and 3–5 mL of 10% formalin was injected through the left ventricular apex to perfusion-fix the animals. Various organs were harvested, rinsed once in PBS and imaged using an In Vivo Imaging System (IVIS; PerkinElmer Inc., Waltham, MA, USA) with identical instrument settings (stage position, exposure time, binning, F-stop, etc.). The organs were placed in 10% formalin at RT for 4 h, transferred to 15% sucrose at 4 °C overnight, followed by 30% sucrose at 4 °C overnight, before being embedded and cryo-sectioned at 6 μM thickness. The sections were cross-stained with various primary antibodies for ATII cells (ABCA3), basal cells (p63, KRT5), ionocytes (FOXI1), goblet cells (MUC5AC), ATI cells (HOPX), ciliated cells (acetylated tubulin), club cells (Uteroglobin), pulmonary endothelial cells (CD31), and airway smooth muscle cells (α-SMA) overnight at 4 °C. The sections were washed and incubated with Alexa-Fluor-488-conjugated secondary antibody at RT for 1 h. Additionally, kidney sections were stained with Lotus tetragonolobus Lectin-FITC (LTL-FITC) at RT for 1 h. All sections were then washed and mounted with DAPI, and confocal microscopy was performed. All peptides and time points were tested in triplicate (N = 3).
# [1] = Serum stability in fetal bovine serum, mass spectrometry; type: in vitro ADME; details: 10 µg/mL, 37 °C/5% CO2, 0-360 min, acetonitrile precipitation, C-peptide internal standard, LC-MS full scan peak area, triplicate
# Method: At the end of each incubation time point, the tubes were removed and placed on ice; 25 µL of 1 µM C-peptide as an internal standard was added to the tube and vigorously vortexed for 15 s, followed by the addition of 500 μL of acetonitrile to each tube, vortexing for 30 secs, and centrifugation at maximum speed in a tabletop centrifuge for 5 min at 4 °C. The clear supernatant was transferred to a new tube and analyzed using mass spectrophotometry. A full MS scan was performed from 600.0 to 725.0 m/z (mass/charge) without fragmentations in positive polarity at a resolution of 70,000 (the range option is 17,500–140,000). The maximum injection time was 200 msec. The gas flow rates in arbitrary units were as follows: 48 for sheath, 11 for auxiliary, and 3 for sweep. The spray voltage was 4.00 kV, with a spray current of 5.90µA, a capillary temperature of 320 °C, and an auxiliary gas temperature of 250 °C with the S-lens Radio Frequency (RF) set to 50 (arbitrary units from 0 to 100). […] Intensities were quantified as the peak area containing all ion species within the specified m/+2 range. Then, 20 µL of the sample was injected onto an Eclipse Plus C18 column (1.8 um; 2.1 × 50 mm) at 45 °C at a rate of 0.3 mL/min and eluted with a gradient of acetonitrile (in 0.1% formic acid) using water in 0.1% formic acid as the aqueous phase. […]
# [2] = test system: Human bronchial epithelial cells; experiment: Confocal microscopy of peptide uptake by HBECs; type: cell-based; details: 10 μM Cy5.5 peptide, 2, 10 and 30 min, 37 °C
# Method: Identification and biodistribution of lung-targeting peptides: Eleven “alanine mutant” versions of CTP were synthesized along with the 6 N-terminus CTP-A (APWHLS) and 6 C-terminus CTP-B (SQYSRT), along with CTP peptide as a standard comparison. H9C2 cells, a rat cardiomyoblast cell line, were incubated with 10 μM of the fluorescent peptides, and FACS was performed (Figure 1A). H9C2 cells were chosen because initial phage display studies that led to the identification of CTP were conducted in this cell line, and we had prior evidence of successful transduction of these cells with CTP, which we used as a reference for comparing the alanine mutants. […]. These were injected intravenously in wild-type CD1 mice at a dose of 10 mg/kg. Counter to our expectations, uptake in the heart was negligible. […]; Supplementary Figure S1). […]
# Supplemental Figure S2: Human bronchial epithelial cells transduce robustly with LTPs.
# Human bronchial epithelial cells were plated on cover slips and treated with 10μM of linear
# 3x with pre-warmed PBS, fixed, counterstained with DAPI and confocal microscopy
# have a cytoplasmic, peri-nuclear localization. Random peptide has very little to no uptake.
# (1 picture or pasted object on this page, not shown here)
# [3] = mouse, in vivo, iv, 5 mg/kg
# Method: as §1
# [4] = test system: human Cystic Fibrosis bronchial epithelial cells (CFBE41o-); experiment: Transferrin uptake assay, colocalization with endocytosed Alexa-488 transferrin; type: cell-based; details: confocal; for Uptake by CFBE41o- cells over time: 4 °C, then 5 and 30 min at 37 °C; for Co-localization with endocytosed Alexa-488 transferrin: serum-starved cells, Cy5.5 peptides
# Method: Endocytosis studies: In order to investigate the mechanism of cell entry, human bronchial epithelial cells (HBECs) were serum-starved overnight and subsequently treated with specific endocytic pathway inhibitors. […] At the end of the incubation period, the cells were washed, trypsinized, harvested, and fixed with 2% PFA for 10 min at room temperature (RT), followed by a single wash and resuspension in PBS, and they were subjected to FACS analysis. […] The cells were washed with cold PBS, incubated with Alexa-488-labeled transferrin on ice in a cold room, and incubated for an hour. At the end of incubation, Cy5.5-labeled random, linear or cyclic LTPs were added and transferred to 37 °C, and after each time point, the cells were washed and fixed in 4% PFA. The cells were stained with Hoechst and mounted for confocal imaging.
# Figure 5 Cystic Fibrosis bronchial epithelial cells (CFBE41o-) uptake S7A and R11A without colocalization with endocytosed transferrin. CFBE41o- cells were serum-starved, followed by incubation with transferrin-488, or Cy5.5-labeled linear or cyclic Random, S7A, or R11A, followed by fixation at indicated time points, and confocal microscopy performed. […] (A). Linear peptide colocalization. (B). Cyclic peptide colocalization. (C). Quantification of relative fluorescence of cyclic peptides. ** p < 0.01, *** p < 0.001.
# [5] = test system: lung cell types of wild-type mice; experiment: Confocal microscopy of lung sections of injected mice cross-stained with cell markers; type: in vivo, mouse; details: 10 mg/kg i.v., 15 min, N = 3
# Method: Animal studies: All animal protocols were approved by the University of Pittsburgh and the Mayo Clinic’s Institutional Animal Care and Use Committee. Wild-type, 6-week-old, CD1 (Charles Rivers, Wilmington, MA, USA; Cat #022) mice were weighed and anesthetized with an intraperitoneal injection of a 1:1 cocktail of Ketamine–Xylazine at 1–2 μL/gm body weight, followed by intravenous injection with Cy5.5-labeled peptides that were allowed to circulate for various time points. At the end of the circulation times, the mice were euthanized using inhalational CO2, their chest cavity was opened, their right atrium nicked and 3–5 mL of 10% formalin was injected through the left ventricular apex to perfusion-fix the animals. Various organs were harvested, rinsed once in PBS and imaged using an In Vivo Imaging System (IVIS; PerkinElmer Inc., Waltham, MA, USA) with identical instrument settings (stage position, exposure time, binning, F-stop, etc.). The organs were placed in 10% formalin at RT for 4 h, transferred to 15% sucrose at 4 °C overnight, followed by 30% sucrose at 4 °C overnight, before being embedded and cryo-sectioned at 6 μM thickness. […]
# [6] = test system: SARS-CoV-2 (strain USA_WA1/2020); experiment: microbe, parasite or virus in culture; type: cell-based; details: Severe acute respiratory syndrome coronavirus 2; HBEC inserts, air-liquid interface; treatment apical and basolateral 24 h prior to infection; MOI ~0.0015 CCID50 per cell; virus collected after 5 days, titrated on Vero 76; triplicate; read-out: EC90 (inhibition of viral replication)
compound,measurement,setting,value
CC(C)C[C@H](NC(=O)[C@H](Cc1c[nH]cn1)NC(=O)[C@H](Cc1c[nH]c2ccccc12)NC(=O)[C@@H]1CCCN1C(=O)[C@H](C)NC(=O)CCCCC[N+]1=C(C=CC=CC=C2N(C)c3ccc4ccccc4c3C2(C)C)C(C)(C)c2c1ccc1ccccc21)C(=O)N[C@@H](CO)C(=O)N[C@@H](CO)C(=O)N[C@@H](CCC(N)=O)C(=O)N[C@@H](Cc1ccc(O)cc1)C(=O)N[C@@H](CO)C(=O)N[C@@H](C)C(=O)N[C@H](C(N)=O)[C@@H](C)O [R11A],Lung uptake at lowest dose,"wild-type CD1 mice; 1 mg/kg i.v., ex vivo IVIS",robust lung uptake
same,Uptake in the heart,"wild-type CD1 mice; 10 mg/kg i.v., CD1 mice",negligible
same,Serum stability,[1],susceptibility to immediate degradation upon exposure to serum
same,Uptake by HBECs (confocal),[2],taken up at 10 min with uptake increasing at 30 min
same,tissue to tissue ratio at 0.25 h,[3],8
same,Uptake by CFBE41o- cells over time,[4],increasing uptake at 5 and 30 min
same,Co-localization with endocytosed Alexa-488 transferrin,[4],did not show co-localization
same,Uptake in AT2 and p63+ cells (confocal) compared with cR11A,[5],much lesser amounts
same,"Uptake in ionocytes, AT-1, club, ciliated, goblet, endothelial and smooth muscle cells (confocal)",[5],no uptake
CCC(CC)COC(=O)[C@H](C)N[P@](=O)(OC[C@H]1O[C@@](C#N)(c2ccc3c(N)ncnn23)[C@H](O)[C@@H]1O)Oc1ccccc1 [Remdesivir],EC90,[6],19 nM
CC(C)C[C@H](NC(=O)[C@H](Cc1c[nH]cn1)NC(=O)[C@H](Cc1c[nH]c2ccccc12)NC(=O)[C@@H]1CCCN1C(=O)[C@H](C)NC(=O)CCCCC[N+]1=C(C=CC=CC=C2N(C)c3ccc4ccccc4c3C2(C)C)C(C)(C)c2c1ccc1ccccc21)C(=O)N[C@@H](CO)C(=O)N[C@@H](C)C(=O)N[C@@H](CCC(N)=O)C(=O)N[C@@H](Cc1ccc(O)cc1)C(=O)N[C@@H](CO)C(=O)N[C@@H](CCCNC(=N)N)C(=O)N[C@H](C(N)=O)[C@@H](C)O [S7A] (X1-APWHLSAQYSRT-NH2; C-terminus assumed),Uptake in the heart,"wild-type CD1 mice; 10 mg/kg i.v., CD1 mice",negligible
same,Lung uptake,"wild-type CD1 mice; 10 mg/kg i.v., CD1 mice, confocal/IVIS",robust lung uptake
same,Uptake by HBECs (confocal),[2],taken up at 10 min with uptake increasing at 30 min
same,tissue to tissue ratio at 0.25 h,[3],~2.5
same,Uptake by CFBE41o- cells over time,[4],increasing uptake at 5 and 30 min
same,Co-localization with endocytosed Alexa-488 transferrin,[4],did not show co-localization
"TALACYPHTVGQ [RAN, scrambled, random peptide […] used as control, reference compound]",Uptake by HBECs (confocal),[2],no uptake
